Assay results from US5891851A, “Antibiotic, feglymycin, processes for its preparation and its use” (Hoechst Aktiengesellschaft, priority 1996, dated 1999).
*1 amine or outer side, *2 acyl side, *3 side chain or, on linkers, in order; H or OH if unused. Where a SMILES comes first, the peptide text is derived from it. [ ]: non-standard residue; d: D form. X1 = O=C(C(N[*:1])c1cc(O)cc(O)c1)[*:2]; Hpg = N[CH](C(=O)O)c1ccc(O)cc1

Experiments:
[1] = system: human immunodeficiency viruses; assay type: cell-based, human immunodeficiency virus
Procedure: The IC50 is less than 7 μg per ml. The inhibitory activity can be measured by light-microscopic observation of HIV-typical syncytia. In this connection, the reduction in syncytia formation is a measure of the activity of the agent, in this case of feglymycin. It is also possible, however, to determine the activity of feglymycin by measuring the amount of HIV particles in cell culture supernatants, e.g. by means of commercially available p24 antigen tests.

[2] = assay type: cell-based
Text: The tolerability of feglymycin in both the active concentration and even in higher concetrations is good. Cytotoxic effects or other toxicities were not observed.

[3] = assay type: physicochemical
Text: Stable in neutral and mildly alkaline medium, but unstable in strongly acidic or strongly alkaline solutions.

IC50, inhibitory activity on human immunodeficiency viruses [1]: less than 7 μg per ml
Structure (SMILES): CC(C)C(NC(=O)C(NC(=O)C(N)c1ccc(O)cc1)c1cc(O)cc(O)c1)C(=O)NC(C(=O)NC(C(=O)NC(C(=O)NC(C(=O)NC(C(=O)NC(C(=O)NC(C(=O)NC(C(=O)NC(Cc1ccccc1)C(=O)NC(CC(=O)O)C(=O)O)c1ccc(O)cc1)c1cc(O)cc(O)c1)C(C)C)c1cc(O)cc(O)c1)c1ccc(O)cc1)c1cc(O)cc(O)c1)c1ccc(O)cc1)c1cc(O)cc(O)c1 (stereo not drawn) [feglymycin] (H-[Hpg][X1]V[X1][Hpg][X1][Hpg][X1]V[X1][Hpg]FD-OH; configuration not given here)
Cytotoxic effects or other toxicities [2]: not observed
Solubility [3]: soluble in methanol, acetonitrile and water
